pKd, pKi: −log10 of the molar value. “Also recorded” adds a separate entry of the source. Counter-ions that a name gives are not always drawn. Like-named read-outs stand apart in the source and are kept apart here.
Tests used:
[1] = biological target: T1, rabbit ciliary process adenylate cyclase (beta2-adrenergic receptors) (Oryctolagus cuniculus, UniProt G1TAV7); test: rabbit ciliary process isoproterenol-stimulated adenylate cyclase; assay type: biochemical; conditions: Table III; rabbit ciliary process, isoproterenol-stimulated
T1 construct: Homogenates or washed particulate preparations (10 mg/ml) in 6 mM Tris-maleate, pH 7.4, are prepared from the various tissues to be studied; from tissue; host or cells: rabbit ciliary process
T1 sequence (G1TAV7 1-437): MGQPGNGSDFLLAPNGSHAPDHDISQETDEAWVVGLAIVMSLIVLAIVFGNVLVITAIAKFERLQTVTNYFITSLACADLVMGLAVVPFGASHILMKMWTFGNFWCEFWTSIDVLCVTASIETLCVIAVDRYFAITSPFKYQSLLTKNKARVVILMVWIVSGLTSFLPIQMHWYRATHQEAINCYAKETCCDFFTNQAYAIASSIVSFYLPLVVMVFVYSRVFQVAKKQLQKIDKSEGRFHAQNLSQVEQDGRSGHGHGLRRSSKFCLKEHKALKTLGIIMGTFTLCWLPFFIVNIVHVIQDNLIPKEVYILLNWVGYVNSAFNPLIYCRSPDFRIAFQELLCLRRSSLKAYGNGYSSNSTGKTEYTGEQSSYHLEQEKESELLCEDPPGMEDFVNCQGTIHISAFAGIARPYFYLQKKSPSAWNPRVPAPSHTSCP

[2] = tested on: rabbit ciliary process adenylate cyclase (beta2-adrenergic receptors); test: as above; assay type: biochemical; conditions: for Ki heart / Ki Ciliary Process = beta2/beta1 potency ratio: Table III, rabbit heart vs rabbit ciliary process, ±20%
[3] = biological target: rabbit heart isoproterenol-stimulated adenylate cyclase; test: rabbit heart isoproterenol-stimulated adenylate cyclase; assay type: biochemical
heart adenylate cyclase = conditions: Table I, data from Minneman et al, cited from earlier work; for pKi: antagonists, read-out: Adenylate Cyclase Ki, Heart (G)
adult female cats = conditions: Colasanti and Trotter 1979; cited from earlier work
[4] = biological target: beta1-adrenergic receptor present in mammalian heart; conditions: Table I; data from Minneman et al; read-out: Kd for IHYP Binding, Heart (E); cited from earlier work
rabbit eyes = test: intraocular pressure in normal rabbit eyes after topical application; conditions: for IOP in the contralateral eye: 0.5% topical to ipsilateral eye, presumably systemic absorption; for IOP in ipsilateral eyes compared to predrug readings: two 50 microliter doses, normal rabbit, FIG. 2
iris adenylate cyclase = iris adenylate cyclase stimulation; assay type: biochemical
Source text: (§1) The discovery that the ciliary process of the mammalian eye contains β2 -adrenergic receptors is based on the technique of measuring adenylate cyclase, an enzyme which synthesizes cyclic AMP from ATP. It has been established that receptor binding of beta adrenergic agonists is associated with a concomitant activation of adenylate cyclase. (Robison, G. A., et al, Cyclic AMP, Academic Press, New York, 1971, and Wolfe, B. B., et al, Annual Reviews of Pharmacology and Toxicology, 17:575-604 (1977)). […] Beta adrenergic sensitive adenylate cyclase activity was thus identified and characterized in the ocular tissues of several mammalian species such as rabbits, cats, dogs, monkeys and humans. After isolation of the ciliary process, adenylate cyclase activity was measured, and its activation by agonists or inhibition by antagonists was measured. […].
(§2) For ciliary body, maximal stimulation was 15% of the stimulation seen in the ciliary process, and for iris, maximal stimulation was 22% for that seen in the ciliary process. […];

[5] = tested on: ciliary body adenylate cyclase; test: ciliary body adenylate cyclase stimulation; assay type: biochemical
Source text: as §1, §2

[6] = Table III, rabbit heart, isoproterenol-stimulated, read-out: Adenylate Cyclase Ki, Heart

With `CC(C)NCC(O)COc1ccc(CC(N)=O)cc1` (stereo not drawn) [Atenolol, atenolol] the pKi [1] was 4.96.
For `COc1ccc(OC)c(C(O)C(C)NC(C)(C)C)c1` (stereo not drawn) [Butoxamine], the pKi [1] was 5.85, the “β2/β1 potency ratio (Ki heart/Ki ciliary process)” value ([2]; Table II, from Table I, accurate to ±20%) was 1.50 and the “Ki heart / Ki Ciliary Process = beta2/beta1 potency ratio” value [2] was 6.8. The pKi [3, 6] was 5.02 and the pKi (heart adenylate cyclase) was 5.02.
In the case of `CNC[C@H](O)c1ccc(O)c(O)c1` [Epinephrine], the “Adenylate Cyclase Ka, Heart (G)” value (heart adenylate cyclase; agonists, NE = no effect as agonist) is listed as 1.5 µM.
With `Cc1ccc(C(O)C(C)NC(C)C)cc1` (stereo not drawn) [H35/25, (1(4'-methyl phenyl)-2-isopropylaminopropanol)] the pKi [1] was 6.10, the “Ki heart / Ki Ciliary Process = beta2/beta1 potency ratio” value [2] was 8.8 and the “β2/β1 potency ratio (Ki heart/Ki ciliary process)” value ([2]; rabbit, heart vs ciliary process) was 3.1. For the same molecule, the pKi [3, 6] was 5.15, the “maximal reduction of intraocular tension” value (adult female cats) was “about the same maximal reduction as timolol” and the pKd [4] was 5.71. The pKi (heart adenylate cyclase) was 5.15.
With `CC(C)(C)NCC(O)CON=C1c2ccccc2-c2ccccc21` (stereo not drawn) [IPS 339, (t-butyl-amino 3-ol-2-propyl)oximino-9 fluorene, hydrochloride] the pKi ([3]; Table I, footnote ++ present invention, read-out: Adenylate Cyclase Ki, Heart (G)) was 6.08, the pKi [3, 6] was 6.08 and the “IOP in the contralateral eye” value (rabbit eyes) was “significant decrease in IOP in the contralateral eye”. For the same molecule, the “IOP in ipsilateral eyes compared to predrug readings” value (rabbit eyes; 0.5% topical) was “significant decrease in IOP in ipsilateral eyes at 2 and 3 hours after application”, the “extent of IOP decrease, IPS 339 compared with timolol” value (rabbit eyes; 0.5% topical, at 3 hours) was “significantly more than that caused by timolol” and the “magnitude of contralateral IOP effect” value (rabbit eyes; 0.5% topical, compared with timolol) was “somewhat less for IPS 339 than for timolol”.
In the case of `CC(C)NCC(O)c1ccc(O)c(O)c1` (stereo not drawn) [Isoproterenol, isoproterenol], the “maximal stimulation, iris” value (iris adenylate cyclase) was 22 % for that seen in the ciliary process and the “maximal stimulation, ciliary body” value [5] was 15 % of the stimulation seen in the ciliary process.
For `CC(=O)Nc1ccc(OCC(O)CNC(C)C)cc1` (stereo not drawn) [Practolol, practolol], the pKi [1] is listed as 4.68, the pKi [3, 6] is listed as 5.17 and the pKi (heart adenylate cyclase) is listed as 5.17.
With `CC(C)(C)NC[C@H](O)COc1nsnc1N1CCOCC1` [Timolol, timolol] the pKi [1] was 8.35, the pKi [3, 6] was 7.80 and the “IOP in the contralateral eye” value (rabbit eyes) was “significant decrease in IOP in the contralateral eye”. The “IOP in ipsilateral eyes compared to predrug readings” value (rabbit eyes; 0.5% topical) was “significant decrease in IOP in ipsilateral eyes at 2 and 3 hours after application; also recorded: significant decrease at 1 hour” and the pKi (heart adenylate cyclase) was 7.80.

Source: patent publication US4652586A, “Selective beta-2 adrenergic antagonists for the treatment of glaucoma” (priority 1980, dated 1987)
